{"source": "PubChem BioAssay AID1845195", "about": "(Molecular Pharmacology Branch, DTP, NCI, 2023);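 further: spheroids exposed to compounds for 7 days before readout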;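 on viability, T/C: percent of vehicle control viability where 100% = DMSO-treated spheroids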", "system": "156681-154-R-J1 tumor spheroid viability", "assay": "Anticancer human tumor 156681-154-R-J1 patient-derived melanoma cell line growth inhibition", "conditions": "spheroids with HUVEC and MSC; for IC50: curve of first compound; for viability, T/C: stronger effect = lower value", "source_text": "Multicellular complex tumor spheroid response to DNA repair inhibitors in combination with DNA-damaging drugs\nThis study explores the anticancer activities of DNA-damaging drugs and inhibitors of DNA damage repair, both as single agents and in combinations. Complex tumor spheroids comprised of malignant cells, endothelial cells and mesenchymal stem cells served as an in vitro model for human solid tumors. This model system incorporates physiologically relevant features and patient-derived or established malignant cell lines with clinically relevant genetic alterations from many tumor types. Twenty-six patient-derived or established malignant cell lines were evaluated representing sarcoma, melanoma, small cell lung cancer (SCLC), non-small cell lung cancer (NSCLC), as well as bladder, ovarian and pancreatic cancers. The concentration ranges selected for each drug and investigational agent were based upon clinically achievable concentrations if the clinical Cmax of the agent was known.\nCompounds. The drugs and compounds olaparib (NSC753686), talazoparib (NSC767125), berzosertib (NSC777718), elimusertib (NSC800525), nedisertib (NSC802822), VX-984 (NSC792969), AZD-1390 (NSC803789), temozolomide (NSC362856), topotecan (NSC609699), trabectedin (NSC813783), staurosporine (NSC755774), and gemcitabine (NSC613327) were obtained from the National Cancer Institute (NCI) Developmental Therapeutics Program Chemical Repository. The FDA-approved anticancer drug set is available from the Developmental Therapeutics Program at https://dtp.cancer.gov/organization/dscb/obtaining/available_plates.htm. […] The stock solutions were prepared in dimethyl sulfoxide (DMSO, Sigma-Aldrich, St. Louis, MO, cat. D2650) at 400-fold the tested concentration and stored at -70 degrees C. Prior to their use, the stock solutions were diluted in fresh medium and the final DMSO concentration in the assay was 0.25% (v/v). All drugs and investigational agents were tested over a range starting from a high concentration at or near the clinical Cmax and decreasing in half-log increments. If the clinical Cmax for an agent had not been determined, the highest concentration tested was 10 microM.\nCell Lines. The patient-derived cancer cell (PDC) lines: 156681-154-R-J1-PDC, 283228-195-R-J1-PDC, 287954-098-R-J1-PDC, 292921-168-R-J2-PDC, 349418-098-R-PDC, 425362-245-T-J1-PDC, 556581-035-R-J1-PDC, and BL0293-F563-PDC were received from the NCI Patient-Derived Models Repository (PDMR, https://pdmr.cancer.gov). The established cell lines HS-SY-2 (RRID:CVCL_8719), MPNST, and SYO-1 (RRID:CVCL_7146) were obtained from the Sloan Kettering Institute. The alveolar soft parts sarcoma cell line ASPS-1 (RRID:CVCL_S738) was established at the NCI and grown from internal seed stocks. The following established cell lines were purchased from the American Type Culture Collection (ATCC, Manassas, VA): G-401 (ATCC, cat. CRL-1441, RRID:CVCL_0270), SW982 (ATCC, cat. HTB-93, RRID:CVCL_1734), VA-ES-BJ (ATCC, cat. CRL-2138, RRID:CVCL_1785), NCI-H719 (ATCC, cat. CRL-5837, RRID:CVCL_1582), NCI-H196 (ATCC, cat. CRL-5823, RRID:CVCL_1509), NCI-H841 (ATCC, cat. CRL-5845, RRID:CVCL_1595), NCI-H1618 (ATCC, cat. CRL-5879, RRID:CVCL_1480), NCI-H1876 (ATCC, cat. CRL-5902, RRID:CVCL_1503), DMS 114 (ATCC, cat. CRL-2066; RRID:CVCL_1174), NCI-H211 (ATCC, cat. CRL-5824; RRID:CVCL_1529), and SW 1271 (ATCC, cat. CRL-2177, RRID:CVCL_1716). The small cell lung cancer cell line COR-L88 was purchased from Sigma-Aldrich (cat. 92031917-1VL, RRID:CVCL_1141). The non-small cell lung cancer cell lines NCI-H226 (RRID:CVCL_1544) and NCI-H322M (RRID:CVCL_1557) were established at the NCI and grown from internal seed stocks. Pooled donor human umbilical vein endothelial cells (HUVEC, Lonza, cat. CC-2519) and human mesenchymal stem cells (hMSC, Lonza, cat. PT-2501) were purchased from Lonza (Walkersville, MD).\nCell Culture. All cells were maintained in an incubator at 37 degrees C and 5% CO2 with 95% humidity. […]", "data": [{"smiles": "CC(C)n1c(=O)n(C)c2cnc3cc(F)c(-c4ccc(OCCCN5CCCCC5)nc4)cc3c21", "note": "+ COc1cc2c(cc1O)CCNC21CSC2c3c(OC(C)=O)c(C)c4c(c3C(COC1=O)N1C(O)C3Cc5cc(C)c(OC)c(O)c5C(C21)N3C)OCO4", "values": [{"measurement": "IC50", "setting": "second compound 30 pM", "result": "> 10", "unit": "µM"}, {"measurement": "IC50", "setting": "second compound 94.9 pM", "result": "> 10", "unit": "µM"}, {"measurement": "IC50", "setting": "second compound 0.0003 µM", "result": 4.75, "unit": "µM"}, {"measurement": "IC50", "setting": "second compound 0.000949 µM", "result": "< 0.0316", "unit": "µM"}, {"measurement": "IC50", "setting": "second compound 0.003 µM", "result": "< 0.0316", "unit": "µM"}, {"measurement": "viability, T/C", "setting": "second compound 30 pM, first compound 0.0316 µM", "result": 101, "unit": "%"}, {"measurement": "viability, T/C", "setting": "second compound 30 pM, first compound 0.1 µM", "result": 120, "unit": "%"}, {"measurement": "viability, T/C", "setting": "second compound 30 pM, first compound 0.316 µM", "result": 87.2, "unit": "%"}, {"measurement": "viability, T/C", "setting": "second compound 30 pM, first compound 1 µM", "result": 105, "unit": "%"}, {"measurement": "viability, T/C", "setting": "second compound 30 pM, first compound 3.16 µM", "result": 104, "unit": "%"}, {"measurement": "viability, T/C", "setting": "second compound 30 pM, first compound 10 µM", "result": 90.3, "unit": "%"}, {"measurement": "viability, T/C", "setting": "second compound 94.9 pM, first compound 0.0316 µM", "result": 106, "unit": "%"}, {"measurement": "viability, T/C", "setting": "second compound 94.9 pM, first compound 0.1 µM", "result": 91.1, "unit": "%"}, {"measurement": "viability, T/C", "setting": "second compound 94.9 pM, first compound 0.316 µM", "result": 103, "unit": "%"}, {"measurement": "viability, T/C", "setting": "second compound 94.9 pM, first compound 1 µM", "result": 95, "unit": "%"}, {"measurement": "viability, T/C", "setting": "second compound 94.9 pM, first compound 3.16 µM", "result": 108, "unit": "%"}, {"measurement": "viability, T/C", "setting": "second compound 94.9 pM, first compound 10 µM", "result": 73.5, "unit": "%"}, {"measurement": "viability, T/C", "setting": "second compound 0.0003 µM, first compound 0.0316 µM", "result": 66.9, "unit": "%"}, {"measurement": "viability, T/C", "setting": "second compound 0.0003 µM, first compound 0.1 µM", "result": 63.5, "unit": "%"}, {"measurement": "viability, T/C", "setting": "second compound 0.0003 µM, first compound 0.316 µM", "result": 61.7, "unit": "%"}, {"measurement": "viability, T/C", "setting": "second compound 0.0003 µM, first compound 1 µM", "result": 65.7, "unit": "%"}, {"measurement": "viability, T/C", "setting": "second compound 0.0003 µM, first compound 3.16 µM", "result": 85.7, "unit": "%"}, {"measurement": "viability, T/C", "setting": "second compound 0.0003 µM, first compound 10 µM", "result": 15.9, "unit": "%"}, {"measurement": "viability, T/C", "setting": "second compound 0.000949 µM, first compound 0.0316 µM", "result": 6.13, "unit": "%"}, {"measurement": "viability, T/C", "setting": "second compound 0.000949 µM, first compound 0.1 µM", "result": 2.85, "unit": "%"}, {"measurement": "viability, T/C", "setting": "second compound 0.000949 µM, first compound 0.316 µM", "result": 4.29, "unit": "%"}, {"measurement": "viability, T/C", "setting": "second compound 0.000949 µM, first compound 1 µM", "result": 3.82, "unit": "%"}, {"measurement": "viability, T/C", "setting": "second compound 0.000949 µM, first compound 3.16 µM", "result": 4.41, "unit": "%"}, {"measurement": "viability, T/C", "setting": "second compound 0.000949 µM, first compound 10 µM", "result": 0.77, "unit": "%"}, {"measurement": "viability, T/C", "setting": "second compound 0.003 µM, first compound 0.0316 µM", "result": 0.23, "unit": "%"}, {"measurement": "viability, T/C", "setting": "second compound 0.003 µM, first compound 0.1 µM", "result": 0.23, "unit": "%"}, {"measurement": "viability, T/C", "setting": "second compound 0.003 µM, first compound 0.316 µM", "result": 0.24, "unit": "%"}, {"measurement": "viability, T/C", "setting": "second compound 0.003 µM, first compound 1 µM", "result": 0.22, "unit": "%"}, {"measurement": "viability, T/C", "setting": "second compound 0.003 µM, first compound 3.16 µM", "result": 0.18, "unit": "%"}, {"measurement": "viability, T/C", "setting": "second compound 0.003 µM, first compound 10 µM", "result": 0.24, "unit": "%"}]}]}
